# Measurements reported in US11214803B2, “Modulators of YAP1 expression” (Ionis Pharmaceuticals, Inc., priority 2019, dated 2022).
# Marks after values point to notes of the source that are not given here. Strand notation (5' to 3'): a small letter for the sugar, then the base; units joined by * are phosphorothioate-linked, units joined directly phosphodiester-linked; [ ] holds rarer units or linkages, { } end groups; capitals alone tell only the bases. k = constrained ethyl (cEt); [5mC] = 5-methylcytosine; d = 2'-deoxy (DNA)
# Tested on: Yap1 mRNA
# Assay: Antisense inhibition of human Yap1 in A-431 cells by cEt gapmers, single dose (Example 2, RTS4814)
# Type: cell-based
# Conditions: A-431 cells, 5,000 cells per well, free uptake, 2,000 nM modified oligonucleotide, approx. 48 hours, RTS4814, normalized to RIBOGREEN; Table 4; asterisk (*) = targets amplicon region of primer probe set
# In short: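 A-431 cells (5,000/well) took up 2,000 nM 3-10-3 cEt gapmer by free uptake for ~48 h. Yap1 mRNA was quantified by qRT-PCR with primer probe set RTS4814, normalized to RIBOGREEN total RNA, and reported as % of untreated control.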
row,Substance,YAP1 (% UTC)
1,716367 (k[5mC]*kA*kT*dG*dG*dG*d[5mC]*dA*d[5mC]*dG*dG*dT*d[5mC]*kT*kG*kG; antisense) [Compound 716367],70
2,716541 (antisense kT*kA*kA*dA*dG*dG*d[5mC]*dA*d[5mC]*dT*dA*d[5mC]*dA*kT*kT*kT) [Compound 716541],92
3,716529 (antisense k[5mC]*kA*kA*dA*d[5mC]*dT*d[5mC]*dA*dA*dA*dA*dA*dG*kG*kG*kA) [Compound 716529],61

# Same assay, conditions: Table 5; A-431 cells, 5,000 cells per well, free uptake, 2,000 nM modified oligonucleotide, approx. 48 hours; RTS4814; normalized to RIBOGREEN; Yap1 mRNA relative to untreated control cells
row,Substance,YAP1 (% UTC)
1,716458 (kA*kA*kG*d[5mC]*dA*dG*dG*dG*dA*dA*dA*d[5mC]*d[5mC]*kT*kA*kA; antisense) [Compound 716458],94
2,716506 (antisense kT*k[5mC]*kT*dG*d[5mC]*dA*dG*dT*dG*dG*d[5mC]*d[5mC]*dA*kT*kT*kT) [Compound 716506],62
3,716473 (k[5mC]*kT*kA*dT*dA*dA*dA*dG*d[5mC]*dT*dT*dA*dT*kT*kT*k[5mC]; antisense) [Compound 716473],104

# Same assay, conditions: Table 6; A-431 cells, 5,000 cells per well, free uptake, 2,000 nM modified oligonucleotide, approx. 48 hours; RTS4814; normalized to RIBOGREEN; Yap1 mRNA relative to untreated control cells
row,Substance,YAP1 (% UTC)
1,716489 (kA*kG*kT*dT*dA*dA*dT*dT*d[5mC]*dA*dT*dG*d[5mC]*kT*k[5mC]*kG; antisense) [Compound 716489],23
2,716531 (antisense kG*kG*kA*d[5mC]*dA*dT*dA*dA*dA*dA*d[5mC]*dA*dA*kG*kA*kG) [Compound 716531],65
3,716543 (antisense kT*kA*kT*dT*dT*dG*dT*dA*dG*d[5mC]*dA*dA*dA*kG*kT*k[5mC]) [Compound 716543],35
4,716366 (k[5mC]*kA*kG*dG*dT*d[5mC]*dG*dG*dT*d[5mC]*dT*d[5mC]*d[5mC]*kG*kA*kG; antisense) [Compound 716366],95
5,716426 (kT*kT*kT*dG*dA*dT*dT*d[5mC]*dT*dT*dT*dA*dG*kA*kG*k[5mC]; antisense) [Compound 716426],45

# Same assay, conditions: Table 18; A-431 cells, 5,000 cells per well, free uptake, 2,000 nM modified oligonucleotide, approx. 48 hours; RTS4814; normalized to RIBOGREEN; Yap1 mRNA as percent of untreated control
row,Substance,YAP1 (% UTC)
1,1076228 (kA*kT*kT*dA*dA*d[5mC]*d[5mC]*dT*d[5mC]*dA*dG*dT*dG*kA*kG*k[5mC]; antisense) [Compound 1076228],69 % UTC
2,1074436 (k[5mC]*kA*kT*dG*dA*dA*dG*d[5mC]*dA*dT*d[5mC]*dT*dG*kA*k[5mC]*kT; antisense) [Compound 1074436],31* % UTC

# Same assay, conditions: Table 19; A-431 cells, 5,000 cells per well, free uptake, 2,000 nM modified oligonucleotide, approx. 48 hours; RTS4814; normalized to RIBOGREEN; Yap1 mRNA as percent of untreated control
row,Substance,YAP1 (% UTC)
1,1075525 (kT*kT*kA*dA*dT*dT*dA*dA*dG*dG*dG*d[5mC]*d[5mC]*k[5mC]*kA*k[5mC]; antisense) [Compound 1075525],130
2,1076165 (k[5mC]*k[5mC]*k[5mC]*d[5mC]*dA*dA*dG*dG*dA*d[5mC]*dT*dT*dG*k[5mC]*k[5mC]*kA; antisense) [Compound 1076165],79

# Same assay, conditions: Table 20; Yap1 mRNA, percent of untreated control; 3-10-3 cEt gapmers targeting SEQ ID NO.: 1 and 2
row,Substance,YAP1 (% UTC)
1,1074758 (k[5mC]*kA*kG*dT*dT*dA*dA*dG*d[5mC]*dA*d[5mC]*dT*dT*kT*kT*kA; antisense) [Compound 1074758],4

# Same assay, conditions: Table 21; Yap1 mRNA, percent of untreated control; 3-10-3 cEt gapmers targeting SEQ ID NO.: 1 and 2
row,Substance,YAP1 (% UTC)
1,1074407 (antisense kT*kA*kA*dA*dG*dT*dA*dT*d[5mC]*dT*dT*dG*d[5mC]*kT*kG*kG) [Compound 1074407],6
2,1076423 (k[5mC]*k[5mC]*kT*dG*dA*dA*d[5mC]*d[5mC]*dT*dT*d[5mC]*dT*dG*kG*kA*kT; antisense) [Compound 1076423],93
3,1074631 (antisense k[5mC]*kA*kT*dA*dG*d[5mC]*dA*dG*d[5mC]*dT*dT*dT*dT*kG*k[5mC]*k[5mC]) [Compound 1074631],9

# Same assay, conditions: Table 22; Yap1 mRNA as percent of untreated control; 3-10-3 cEt gapmers; single dose
row,Substance,YAP1 (% UTC)
1,1076488 (antisense kG*k[5mC]*k[5mC]*dA*dA*dT*dA*dA*dG*dA*dT*dA*dA*kG*kA*kA) [Compound 1076488],19
2,1075208 (antisense kA*k[5mC]*kT*dG*dA*dA*d[5mC]*dA*d[5mC]*dA*dG*dG*d[5mC]*kT*kA*k[5mC]) [Compound 1075208],24
3,1074152 (antisense k[5mC]*kG*kG*dG*d[5mC]*d[5mC]*dG*dA*dG*dG*dT*dG*dG*kA*kG*kA) [Compound 1074152],77
4,1075528 (kA*kT*k[5mC]*dG*dA*dA*dG*dG*dG*d[5mC]*dA*dA*dA*k[5mC]*kT*k[5mC]; antisense) [Compound 1075528],42

# Same assay, conditions: Table 23; Yap1 mRNA as percent of untreated control; 3-10-3 cEt gapmers; single dose
row,Substance,YAP1 (% UTC)
1,1076393 (k[5mC]*kT*kT*dT*dA*d[5mC]*dT*dT*dA*d[5mC]*dT*dG*dG*kT*kG*kG; antisense) [Compound 1076393],4
2,1075497 (kA*kT*kT*dA*dT*dA*dT*dA*dA*dT*dG*d[5mC]*dA*kG*kG*k[5mC]; antisense) [Compound 1075497],14

# Same assay, conditions: Table 24; Yap1 mRNA as percent of untreated control; 3-10-3 cEt gapmers targeting SEQ ID NO.: 1, and 2
row,Substance,YAP1 (% UTC)
1,1076202 (kT*k[5mC]*kT*dA*dA*dA*dA*dA*dG*dA*d[5mC]*dA*dG*kG*kG*k[5mC]; antisense) [Compound 1076202],32
2,1074858 (antisense kA*kA*k[5mC]*dA*dT*dT*dG*dG*dT*dA*d[5mC]*dT*dA*kT*kA*kT) [Compound 1074858],23
3,1074538 (antisense kA*kT*k[5mC]*d[5mC]*dA*d[5mC]*dA*dG*dT*dA*dA*dT*dA*kG*k[5mC]*kT) [Compound 1074538],31
4,1076362 (k[5mC]*k[5mC]*kA*d[5mC]*dT*dA*dA*dA*dT*dA*dA*dA*dG*k[5mC]*kA*kG; antisense) [Compound 1076362],16

# Same assay, conditions: Table 25; Yap1 mRNA as percent of untreated control; 3-10-3 cEt gapmers targeting SEQ ID NO.: 1, and 2
row,Substance,YAP1 (% UTC)
1,1074187 (antisense k[5mC]*kT*kG*d[5mC]*dG*dA*dA*dG*dG*d[5mC]*dG*dG*d[5mC]*kT*kG*k[5mC]) [Compound 1074187],47
2,1075915 (kA*kA*kT*dT*dT*dA*dG*dG*dA*dT*dG*d[5mC]*d[5mC]*kT*kT*kT; antisense) [Compound 1075915],16
3,1076235 (kT*k[5mC]*kA*dA*dA*dA*dT*dA*dA*dT*d[5mC]*dA*dG*k[5mC]*k[5mC]*k[5mC]; antisense) [Compound 1076235],34

# Same assay, conditions: Table 32; Yap1 mRNA, percent of untreated control; 3-10-3 cEt gapmers targeting SEQ ID NO.: 1, and 2
row,Substance,YAP1 (% UTC)
1,1075794 (k[5mC]*kA*kT*dA*dA*dT*dG*dA*dA*dT*dG*dT*dG*kG*kG*kT; antisense) [compound 1075794],38
2,1074226 (antisense k[5mC]*kT*kG*dT*d[5mC]*dG*dA*dA*dG*dA*dT*dG*d[5mC]*kT*kG*kA) [compound 1074226],10
3,1075922 (antisense kG*k[5mC]*k[5mC]*d[5mC]*dA*dA*dA*dA*dT*dA*dG*dG*dA*kT*kA*k[5mC]) [compound 1075922],60
4,1074802 (kG*kG*k[5mC]*dA*d[5mC]*dT*dA*d[5mC]*dA*dT*dT*dT*dA*kG*kA*kA; antisense) [compound 1074802],37
5,1074482 (kT*kA*kA*dT*dA*dT*dG*dG*dT*d[5mC]*dA*dT*dT*kT*kG*k[5mC]; antisense) [compound 1074482],12

# Same assay, conditions: Table 33; Yap1 mRNA, percent of untreated control; 3-10-3 cEt gapmers targeting SEQ ID NO.: 1, and 2
row,Substance,YAP1 (% UTC)
1,1075475 (kT*kA*kG*d[5mC]*dA*dA*d[5mC]*dA*d[5mC]*dA*dT*dG*dA*kA*kG*kA; antisense) [compound 1075475],64

# Same assay, conditions: Yap1 mRNA as percent of untreated control; A-431 cells; 3-10-3 cEt gapmers targeting SEQ ID NO.: 1, and 2; Table 30
row,Substance,YAP1 (% UTC)
1,1075696 (kT*kT*kA*d[5mC]*dA*dA*dA*dA*dG*dT*dT*dA*d[5mC]*kT*kG*k[5mC]; antisense) [compound 1075696],28
2,1076208 (kG*kA*kG*dG*dA*dA*dT*dA*dT*dT*dA*d[5mC]*dA*kG*kA*k[5mC]; antisense) [compound 1076208],15
3,1074864 (k[5mC]*kA*kT*dA*dT*dG*dA*dG*d[5mC]*dA*dT*dG*d[5mC]*kT*k[5mC]*kT; antisense) [compound 1074864],47
4,1075952 (antisense k[5mC]*kT*kA*dT*dA*dT*dA*d[5mC]*d[5mC]*dT*dG*d[5mC]*dT*kT*k[5mC]*kT) [compound 1075952],41

# Same assay, conditions: Yap1 mRNA as percent of untreated control; A-431 cells; 3-10-3 cEt gapmers targeting SEQ ID NO.: 1, and 2; Table 31
row,Substance,YAP1 (% UTC)
1,1074129 (k[5mC]*k[5mC]*k[5mC]*dG*dG*d[5mC]*dT*d[5mC]*d[5mC]*dA*d[5mC]*dT*dG*kG*kT*k[5mC]; antisense) [compound 1074129],77
2,1075697 (kA*kA*kT*dA*dA*dT*d[5mC]*d[5mC]*dA*dT*dG*d[5mC]*dT*kT*kG*k[5mC]; antisense) [compound 1075697],16
3,1074673 (antisense kA*kG*kG*d[5mC]*dA*d[5mC]*dT*d[5mC]*d[5mC]*dT*dT*d[5mC]*d[5mC]*kA*kA*kG) [compound 1074673],43
